# Test results: patent publication US20230250060A1 (IFM Due, Inc., priority 2022, published 2023)
# Target: T1, STING (Homo sapiens, UniProt Q86WV6, G230A/H232R/R293Q/R71H)
# T1 construct: host or cells: THP1-Dual KO-IFNAR2 cells
# Experiment: STING reporter assay (luciferase) in THP1-Dual KO-IFNAR2 cells stimulated with 2′3′cGAMP
# Format: cell-based
# Conditions: 2′3′cGAMP 15 μM final, 24 h, luciferase reporter activity, read-out: Pharmaron, THP1_IFNAR2 STING 24 h Luci Normalized: GeoMean EC50
# Method: STING pathway activation by the compounds described herein was measured using TTIP1-Dual™ cells (KO-IFNAR2).
# TTIP1-Dual™ KO-IFNAR2 Cells (obtained from invivogen) were maintained in RPMI, 10% FCS, 5 ml P/S, 2 mM L-glut, 10 mM Hepes, and 1 mM sodium pyruvate. Compounds were spotted in empty 384 well tissue culture plates (Greiner 781182) by Echo for a final concentration of 0.0017-100 μM. Cells were plated into the TC plates at 40 μL per well, 2×10E6 cells/mL. For activation with STING ligand, 2′3′cGAMP (MW 718.38, obtained from Invivogen), was prepared in Optimem media.
# The following solutions were prepared for each 1×384 plate: • Solution A: 2 mL Optimem with one of the following stimuli: • […] • Solution B: 2 mL Optimem with […] Lipofectamine 2000→Incubate 5 min at RT
# 2 mL of solution A and 2 ml Solution B was mixed and incubated for 20 min at room temperature (RT). 20 μL of transfection solution (A+B) was added on top of the plated cells, with a final 2′3′cGAMP concentration of 15 μM. The plates were then centrifuged immediately at 340 g for 1 minute, after which they were incubated at 37° C., 5% CO2, >98% humidity for 24 h. Luciferase reporter activity was then measured. EC50 values were calculated by using standard methods known in the art.
# Luciferase reporter assay: 10 μL of supernatant from the assay was transferred to white 384-plate with flat bottom and squared wells. One pouch of QUANTI-Luc™ Plus was dissolved in 25 mL of water. 100 μL of QLC Stabilizer per 25 mL of QUANTI-Luc™ Plus solution was added. 50 μL of QUANTI-Luc™ Plus/QLC solution per well was then added. Luminescence was measured on a Platereader (e.g., Spectramax I3X (Molecular Devices GF3637001)).
# Luciferase reporter activity was then measured. EC50 values were calculated by using standard methods known in the art.
# T1 sequence (Q86WV6 whole entry R71H/G230A/H232R/R293Q): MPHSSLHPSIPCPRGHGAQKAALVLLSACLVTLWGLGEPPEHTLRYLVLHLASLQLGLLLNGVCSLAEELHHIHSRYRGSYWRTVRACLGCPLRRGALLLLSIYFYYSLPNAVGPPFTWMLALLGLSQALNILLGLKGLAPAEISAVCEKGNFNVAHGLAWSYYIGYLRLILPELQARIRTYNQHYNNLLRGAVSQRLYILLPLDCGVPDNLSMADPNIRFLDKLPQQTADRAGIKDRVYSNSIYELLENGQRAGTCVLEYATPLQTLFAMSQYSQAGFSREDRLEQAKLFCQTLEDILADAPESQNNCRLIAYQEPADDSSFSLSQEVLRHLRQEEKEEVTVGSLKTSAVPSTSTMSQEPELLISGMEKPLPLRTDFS
row,EC50 [nM],SMILES
1,200 to 1000,"CC1(C(=O)Nc2c[nH]c3ccc(OCC[C@@H]4C[C@@H]5CN(CC(F)(F)F)C[C@@H]5C4)cc23)CC2(COC2)C1 [Compound 205, 6-methyl-N-(5-(2-((3aR,5r,6aS)-2-(2,2,2-trifluoroethyl)octahydrocyclopenta[c]pyrrol-5-yl)ethoxy)-1H-indol-3-yl)-2-oxaspiro[3.3]heptane-6-carboxamide]"
2,200 to 1000,"O=C(Nc1c[nH]c2ccc(OCC[C@@H]3C[C@@H]4CN(CC(F)(F)F)C[C@@H]4C3)cc12)C1CC12CCC2 (stereo partly drawn) [Compound 223, N-(5-(2-((3aR,5R,6aS)-2-(2,2,2-trifluoroethyl)octahydrocyclopenta [c]pyrrol-5-yl)ethoxy)-1H-indol-3-yl)spiro[2.3]hexane-1-carboxamide]"
3,200 to 1000,"O=C(Nc1c[nH]c2ccc(OCCc3ccc(C(F)(F)F)cc3)cc12)c1ccncc1 [Compound 121, N-(5-(4-(trifluoromethyl)phenethoxy)-1H-indol-3-yl)isonicotinamide]"
4,200 to 1000,"O=C(Nc1c[nH]c2ccc(OCC[C@@H]3C[C@@H]4CN(CC(F)(F)F)C[C@@H]4C3)cc12)C1CC2(CC2)C1 [Compound 222, N-(5-{2-[(3aR,5R,6aS)-2-(2,2,2-trifluoroethyl)octahydrocyclopenta[c]pyrrol-5-yl]ethoxy}-1H-indol-3-yl)spiro[2.3]hexane-5-carboxamide]"
5,200 to 1000,"Cn1nccc1C(=O)Nc1c[nH]c2ccc(OCCc3ccc(C(F)(F)F)cc3)cc12 [Compound 203, 1-methyl-N-(5-(4-(trifluoromethyl)phenethoxy)-1H-indol-3-yl)-1H-pyrazole-5-carboxamide]"

# Further lines, the molecule ahead of its results:
row,SMILES,EC50 [nM]
1,"O=C(Nc1c[nH]c2ccc(O[C@H]3C[C@H](c4ccc(C(F)(F)F)cc4)C3)cc12)c1ccccn1 [Compound 228, N-{5-[(1R,3R)-3-[4-(trifluoromethyl)phenyl]cyclobutoxy]-1H-indol-3-yl}pyridine-2-carboxamide]",200 to 1000
2,"O=C(Nc1c[nH]c2ccc(CCOc3ccc(C(F)(F)F)cc3)cc12)c1cscn1 [Compound 202, N-(5-(2-(4-(trifluoromethyl)phenoxy)ethyl)-1H-indol-3-yl)thiazole-4-carboxamide]",200 to 1000
3,"Cc1oncc1C(=O)Nc1c[nH]c2ccc(O[C@H]3C[C@H](c4ccc(C(F)(F)F)cc4)C3)cc12 [Compound 233, 5-methyl-N-{5-[(1R,3R)-3-[4-(trifluoromethyl)phenyl]cyclobutoxy]-1H-indol-3-yl}-1,2-oxazole-4-carboxamide]",5000 to 100000
4,"O=C(Nc1c[nH]c2ccc(O[C@H]3C[C@H](c4ccc(C(F)(F)F)cc4)C3)cc12)C1CC2(CC2)C1 [Compound 229, N-{5-[(1R,3R)-3-[4-(trifluoromethyl)phenyl]cyclobutoxy]-1H-indol-3-yl}spiro[2.3]hexane-5-carboxamide]",40 to 200
5,"O=C(Nc1c[nH]c2ccc(O[C@H]3C[C@H](c4ccc(C(F)(F)F)cc4)C3)cc12)c1ccncc1 [Compound 225, N-{5-[(1R,3R)-3-[4-(trifluoromethyl)phenyl]cyclobutoxy]-1H-indol-3-yl}pyridine-4-carboxamide]",200 to 1000
6,"O=C(Nc1c[nH]c2ccc(OCc3ccc(C(F)(F)F)cc3)cc12)c1nccs1 [Compound 141, N-(5-((4-(trifluoromethyl)benzyl)oxy)-1H-indol-3-yl)thiazole-2-carboxamide]",200 to 1000
7,"Cn1nccc1C(=O)Nc1c[nH]c2ccc(O[C@H]3C[C@@H](c4ccc(C(F)(F)F)cc4)C3)cc12 [Compound 168, 1-methyl-N-(5-((1s,3s)-3-(4-(trifluoromethyl)phenyl)cyclobutoxy)-1H-indol-3-yl)-1H-pyrazole-5-carboxamide]",200 to 1000
8,"Cn1cc(C(=O)Nc2c[nH]c3ccc(OCc4ccc(C(F)(F)F)cc4)cc23)nn1 [Compound 240, 1-methyl-N-(5-((4-(trifluoromethyl)benzyl)oxy)-1H-indol-3-yl)-1H-1,2,3-triazole-4-carboxamide]",1000 to 5000
